Patent US12171230B2, “Herbicidal compositions” (Bayer Aktiengesellschaft, priority 2018, dated 2024)

Assays:
Assay type in all cases: in vivo
Lamium purpureum = assay: Post-emergence herbicidal action against Lamium purpureum
Procedure, shortened: (§1)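 Greenhouse pot test: three-leaf-stage plants, three weeks from sowing, sprayed with spray-powder or emulsion-concentrate formulations at several dosages (300 to 800 l/ha water). Efficacy rated visually against untreated plants some 3 to 4 weeks later, with Colby formula giving expected combination effect.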

Bidens pilosa = assay: Post-emergence herbicidal action against Bidens pilosa; conditions: for Herbicidal action against Bidens pilosa: 21 DAT
Procedure, shortened: as §1

Setaria viridis = assay: Post-emergence herbicidal action against Setaria viridis; conditions: 21 DAT
Procedure, shortened: as §1

Sorghum halepense = assay: Post-emergence herbicidal action against Sorghum halepense
Procedure, shortened: as §1

Galium aparine = assay: Post-emergence herbicidal action against Galium aparine
Procedure, shortened: as §1

Matricaria inodora = assay: Post-emergence herbicidal action against Matricaria inodora
Chenopodium album = assay: Post-emergence herbicidal action against Chenopodium album; conditions: g of a.i./ha: 180, 100, 100 + 180
Protocol: When the observed efficacies exceed the formal sum total of the values of the tests with individual applications, they also exceed the expected value according to Colby, which is calculated using the formula below and is likewise regarded as an indication of synergism (cf. S. R. Colby; in Weeds 15 (1967) p. 20 to 22): E^C=A+B−([…])
Here: • A=efficacy of the active compound (A) in % at an application rate of a g a.i./ha; • B=efficacy of the active compound (B) in % at an application rate of b g a.i./ha; • E^C=expected value of the effect of the combination (A)+(B) in % at the combined application rate a+b g a.i./ha.
Seeds or rhizome pieces of mono- and dicotyledonous weeds are placed in sandy loam in pots, covered with soil and grown in a greenhouse under good growth conditions (temperature, air humidity, water supply). Three weeks after sowing, the test plants were treated at the three-leaf stage with the compositions according to the invention. The compositions according to the invention formulated as spray powders or as emulsion concentrates were sprayed onto the green plant parts in various dosages with an application rate of 300 to 800 l/ha of water (equivalent). After the test plants have been left to stand in the greenhouse under optimal growth conditions for about 3 to 4 weeks, the action of the preparations is scored visually in comparison to untreated controls. The compositions according to the invention also have good post-emergence herbicidal activity against a broad spectrum of economically important gramineous and broadleaf weeds.

Echinochloa crus-galli = assay: Post-emergence herbicidal action against Echinochloa crus-galli; conditions: 21 DAT; 30 g of a.i./ha
Procedure, shortened: as §1

[1] = test system: Lolium rigidum (resistant biotype); assay: Post-emergence herbicidal action against Lolium rigidum (resistant biotype)
Procedure, shortened: (§2)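 Assessment time was recorded as days after application. Activity for mixtures was set against E^C, the Colby expected value, and against E^A, the total of the effects from each component applied alone; application rates were in g of active substance per hectare.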

Phalaris minor = assay: Post-emergence herbicidal action against Phalaris minor
Procedure, shortened: as §2

Brachiaria plantaginea = assay: Post-emergence herbicidal action against Brachiaria plantaginea; conditions: (Z61) post-emergence; g of a.i./ha: 200, 100, 100 + 200
Excerpt: (§3) The following abbreviations are used in the description and the tables that follow: • g of a.i./ha=grams of active substance (active ingredient) (=100% active compound) per hectare; • The sum total of the effects of the individual applications is reported under E^A; • expected values according to Colby are each reported under E^C.
(§4) The rating period is reported in days after application (DAT).

Bromus sterilis = assay: Post-emergence herbicidal action against Bromus sterilis
Procedure, shortened: as §2

Digitaria horizontalis = assay: Post-emergence herbicidal action against Digitaria horizontalis; conditions: (Z61) post-emergence; g of a.i./ha: 200, 100, 100 + 200
Excerpt: as §3, §4

Veronica hederifolia = assay: Post-emergence herbicidal action against Veronica hederifolia; conditions: g of a.i./ha: 16, 270, 16 + 270
Excerpt: as §3, §4

Brachiaria decumbens = assay: Post-emergence herbicidal action against Brachiaria decumbens; conditions: g of a.i./ha: 200, 100, 100 + 200
Excerpt: as §3, §4

Viola tricolor = assay: Post-emergence herbicidal action against Viola tricolor
Procedure, shortened: as §2

Abutilon theophrasti = assay: Post-emergence herbicidal action against Abutilon theophrasti; conditions: g of a.i./ha: 90, 30, 15, 15 + 90, 15 + 30
Procedure, shortened: as §2

[2] = (Z61) post-emergence, g of a.i./ha by row: 4, 1, 270, 90, 4 + 270, 1 + 270, 1 + 90, 90 g of a.i./ha
[3] = (Z61) post-emergence, g of a.i./ha by row: 4, 1, 270, 90, 4 + 270, 1 + 270, 1 + 90, 270 g of a.i./ha
[4] = (Z119) post-emergence, g of a.i./ha: 1, 270, 1 + 270

O=C(Nc1ccc(F)cc1F)c1cccnc1Oc1cccc(C(F)(F)F)c1 [(B2.18) Diflufenican]
Herbicidal action 14 DAT against Lamium purpureum L. (Lamium purpureum; 30 g of a.i./ha): 20%
Herbicidal action 28 DAT against Lamium purpureum L. (Lamium purpureum; 30 g of a.i./ha): 10%
Herbicidal action 28 DAT against Lamium purpureum L. (Lamium purpureum; 90 g of a.i./ha): 20%
Herbicidal action 28 DAT against Lamium purpureum L. (Lamium purpureum; (Z61) post-emergence, g of a.i./ha by row: 4, 1, 270, 30, 90, 4 + 270, 4 + 30, 1 + 270, 1 + 90, 1 + 30): 20%
Herbicidal action 14 DAT against Lamium purpureum L. (Lamium purpureum; (Z119) post-emergence, g of a.i./ha by row: 16, 30, 16 + 30): 20%
Herbicidal action against Bidens pilosa (Bidens pilosa; 90 g of a.i./ha): 35%
Herbicidal action against Bidens pilosa (Bidens pilosa; 270 g of a.i./ha): 45%
Herbicidal action 21 DAT against Bidens pilosa (Bidens pilosa; post-emergence, g of a.i./ha: 90, 30, 15, 15 + 90, 15 + 30): 10%
Herbicidal action against Setaria viridis (Setaria viridis; 30 g of a.i./ha): 10%
Herbicidal action against Setaria viridis (Setaria viridis; 90 g of a.i./ha): 10%
Herbicidal action against Setaria viridis (Setaria viridis; 270 g of a.i./ha): 15%
Herbicidal action against Sorghum halepense (Sorghum halepense; 21 DAT, 30 g of a.i./ha): 10%
Herbicidal action 21 DAT against Sorghum halepense (Sorghum halepense; (Z3) post-emergence, g of a.i./ha: 90, 30, 15, 5, 15 + 90, 5 + 90, 15 + 30, 5 + 30): 10%
Herbicidal action 28 DAT against Galium aparine (Galium aparine; 30 g of a.i./ha): 0%
Herbicidal action 28 DAT against Galium aparine (Galium aparine; 90 g of a.i./ha): 20%
Herbicidal action 14 DAT against Galium aparine (Galium aparine; (Z119) post-emergence, g of a.i./ha by row: 1, 30, 1 + 30): 30%
Herbicidal action 28 DAT against Galium aparine (Galium aparine; (Z119) post-emergence, g of a.i./ha: 16, 4, 30, 16 + 30, 4 + 30): 0%
Herbicidal action 14 DAT against Matricaria inodora (Matricaria inodora; 90 g of a.i./ha): 50%
Herbicidal action 28 DAT against Matricaria inodora (Matricaria inodora; (Z61) post-emergence, g of a.i./ha: 4, 1, 30, 4 + 30, 1 + 30): 0%
Herbicidal action 28 DAT against Matricaria inodora (Matricaria inodora; (Z119) post-emergence, g of a.i./ha by row: 16, 4, 270, 90, 16 + 270, 4 + 90): 50%
Herbicidal action 27 DAT against Chenopodium album (Chenopodium album): 20%
Herbicidal action against Echinochloa crus-galli (Echinochloa crus-galli): 10%
Herbicidal action 28 DAT against Lolium rigidum (resistant biotype) ([1]; 30 g of a.i./ha): 0%
Herbicidal action 28 DAT against Lolium rigidum (resistant biotype) ([1]; 90 g of a.i./ha): 0%
Herbicidal action 28 DAT against Lolium rigidum (resistant biotype) ([1]; 270 g of a.i./ha): 0%
Herbicidal action 14 DAT against Lolium rigidum (resistant biotype) [1, 2]: 0%
Herbicidal action 14 DAT against Lolium rigidum (resistant biotype) [1, 3]: 10%
Herbicidal action 28 DAT against Lolium rigidum (resistant biotype) ([1]; (Z61) post-emergence, g of a.i./ha: 4, 1, 270, 90, 4 + 270, 1 + 90, 90 g of a.i./ha): 10%
Herbicidal action 28 DAT against Lolium rigidum (resistant biotype) ([1]; (Z61) post-emergence, g of a.i./ha: 4, 1, 270, 90, 4 + 270, 1 + 90, 270 g of a.i./ha): 20%
Herbicidal action 14 DAT against Lolium rigidum (resistant biotype) ([1]; (Z119) post-emergence, g of a.i./ha by row: 16, 1, 90, 30, 270, 16 + 90, 16 + 30, 1 + 270, 30 g of a.i./ha): 0%
Herbicidal action 14 DAT against Lolium rigidum (resistant biotype) ([1]; (Z119) post-emergence, g of a.i./ha by row: 16, 1, 90, 30, 270, 16 + 90, 16 + 30, 1 + 270, 90 g of a.i./ha): 5%
Herbicidal action 28 DAT against Lolium rigidum (resistant biotype) [1, 4]: 0%
Herbicidal action 28 DAT against Phalaris minor (Phalaris minor; 30 g of a.i./ha): 0%
Herbicidal action 28 DAT against Phalaris minor (Phalaris minor; 90 g of a.i./ha): 0%
Herbicidal action 28 DAT against Phalaris minor (Phalaris minor; 270 g of a.i./ha): 5%
Herbicidal action 28 DAT against Phalaris minor (Phalaris minor; (Z119) post-emergence, g of a.i./ha: 16, 4, 270, 90, 30, 16 + 270, 16 + 90, 16 + 30, 4 + 270, 4 + 30, 90 g of a.i./ha): 0%
Herbicidal action 28 DAT against Phalaris minor (Phalaris minor; (Z119) post-emergence, g of a.i./ha: 16, 4, 270, 90, 30, 16 + 270, 16 + 90, 16 + 30, 4 + 270, 4 + 30, 270 g of a.i./ha): 5%
Herbicidal action 14 DAT against Phalaris minor (Phalaris minor; (Z119) post-emergence, g of a.i./ha: 16, 4, 270, 90, 270, 16 + 270, 16 + 90, 4 + 270): 5%
Herbicidal action 28 DAT against Brachiaria plantaginea (Brachiaria plantaginea): 0%
Herbicidal action 14 DAT against Bromus sterilis (Bromus sterilis; [2]): 10%
Herbicidal action 14 DAT against Bromus sterilis (Bromus sterilis; [3]): 15%
Herbicidal action 28 DAT against Bromus sterilis (Bromus sterilis; (Z61) post-emergence, g of a.i./ha: 1, 270, 90, 1 + 270, 1 + 90, 90 g of a.i./ha): 15%
Herbicidal action 28 DAT against Bromus sterilis (Bromus sterilis; (Z61) post-emergence, g of a.i./ha: 1, 270, 90, 1 + 270, 1 + 90, 270 g of a.i./ha): 20%
Herbicidal action 28 DAT against Bromus sterilis (Bromus sterilis; [4]): 0%
Herbicidal action 14 DAT against Bromus sterilis (Bromus sterilis; (Z119) post-emergence, g of a.i./ha: 1, 270, 90, 1 + 270, 1 + 90): 5%
Herbicidal action 28 DAT against Bromus sterilis (Bromus sterilis; (Z148) post-emergence, g of a.i./ha: 1, 270, 90, 30, 1 + 270, 1 + 90, 1 + 30): 0%
Herbicidal action 14 DAT against Bromus sterilis (Bromus sterilis; (Z148) post-emergence, g of a.i./ha: 4, 1, 270, 90, 30, 4 + 270, 4 + 90, 4 + 30, 1 + 30, 30 g of a.i./ha): 0%
Herbicidal action 14 DAT against Bromus sterilis (Bromus sterilis; (Z148) post-emergence, g of a.i./ha: 4, 1, 270, 90, 30, 4 + 270, 4 + 90, 4 + 30, 1 + 30, 270 g of a.i./ha): 5%
Herbicidal action 28 DAT against Digitaria horizontalis (Digitaria horizontalis): 0%
Herbicidal action 14 DAT against Veronica hederifolia (Veronica hederifolia): 85%
Herbicidal action 28 DAT against Brachiaria decumbens (Brachiaria decumbens): 0%
Herbicidal action 28 DAT against Viola tricolor (Viola tricolor; (Z61) post-emergence, g of a.i./ha: 16, 1, 30, 16 + 30, 1 + 30): 40%
Herbicidal action 14 DAT against Viola tricolor (Viola tricolor; (Z119) post-emergence, g of a.i./ha: 16, 270, 16 + 270): 40%
Herbicidal action 21 DAT against Abutilon theophrasti (Abutilon theophrasti): 10%
